Drawing on patent publication US20240382494A1, “THERAPEUTIC COMPOUNDS” (priority 2023, published 2024), this text covers CC50, IC50 and EC50 for 20 molecules.

Data set [1] can be described thus: Cytotoxicity assay in Vero E6 cells (neutral red uptake). The format is cell-based. The note with it: African green monkey.
In the next data set the target is SARS-CoV-2 PLpro (Severe acute respiratory syndrome coronavirus 2, UniProt P0DTD1). The experiment in a line: FRET-based PLpro enzymatic assay. In kind it is biochemical. The essentials: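 200 nM PLpro in 50 mM Hepes pH 7.5, 0.01% Triton X-100, 5 mM DTT, preincubated with compound 30 min at 30 °C; 10 μM final FRET substrate.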
Data set [2] relates to SARS-CoV-2 viral replication. The note with it: cited from earlier work.
Setting [3] is: Vero E6 cells, 2 days at 37° C., neutral red uptake, read-out: Vero CC50.
Where [4] appears, read: 200 nM PLpro, 10 μM FRET substrate, 30 min preincubation at 30° C., read-out: IC50.

Read-outs that look alike come from different tables or passages of the source.

On to `Cc1ccc(N(C)C2(C)CN(C)C2)cc1C(=O)N[C@H](C)c1cc(-c2cnn(C)c2)nc2ccccc12` [Example 93, (R)-5-((1,3-dimethylazetidin-3-yl)(methyl)amino)-2-methyl-N-(1-(2-(1-methyl-1H-pyrazol-4-yl)quinolin-4-yl)ethyl)benzamide], for which the 50% cytotoxic concentration (CC50) at 2 days in data set [1] (setting [3]) worked out at 129 ± 2.32 µM. The IC50 on SARS-CoV-2 PLpro (setting [4]) lay within 1 to 5 µM.
`Cc1ccc(NC2(C)CN(C)C2)cc1C(=O)N[C@H](C)c1cc(-c2cnn(C)c2)nc2ccccc12` [Example 94, (R)-5-((1,3-dimethylazetidin-3-yl)amino)-2-methyl-N-(1-(2-(1-methyl-1H-pyrazol-4-yl)quinolin-4-yl)ethyl)benzamide]: the CC50 at 2 days in data set [1] (setting [3]) is 154 µM. On SARS-CoV-2 PLpro (setting [4]), the IC50 is 1 to 5 µM.
With `Cc1ccc(N2CC(N(C)C)C2)cc1C(=O)N[C@H](C)c1cc(-c2cnn(C)c2)nc2ccccc12` [Example 95, (R)-5-(3-(dimethylamino)azetidin-1-yl)-2-methyl-N-(1-(2-(1-methyl-1H-pyrazol-4-yl)quinolin-4-yl)ethyl)benzamide], the CC50 at 2 days in data set [1] (setting [3]) came out at 311 ± 21.1 µM. The IC50 at SARS-CoV-2 PLpro (setting [4]) lay within 0.5 to 1 µM.
On the same counts, the results for `Cc1ccc(N2CC[C@@H](N(C)C)C2)cc1C(=O)N[C@H](C)c1cc(-c2cnn(C)c2)nc2ccccc12` [Example 96, 5-((R)-3-(dimethylamino)pyrrolidin-1-yl)-2-methyl-N—((R)-1-(2-(1-methyl-1H-pyrazol-4-yl)quinolin-4-yl)ethyl)benzamide] are 28.8 µM and less than 0.5 µM.
In the same order, the values of `Cc1ccc(N2CCN(C)CC2)cc1C(=O)N[C@H](C)c1cc(-c2ccn(C)n2)nc2ccccc12` [Example 97, (R)-2-methyl-N-(1-(2-(1-methyl-1H-pyrazol-3-yl)quinolin-4-yl)ethyl)-5-(4-methylpiperazin-1-yl)benzamide] are 30.7 ± 2.45 µM and less than 0.5 µM.
Regarding `Cc1ccc(OC[C@@H]2CCCN2C)cc1C(=O)N[C@H](C)c1cc(-c2ccn(C)n2)nc2ccccc12` [Example 98, 2-methyl-N—((R)-1-(2-(1-methyl-1H-pyrazol-3-yl)quinolin-4-yl)ethyl)-5-(((S)-1-methylpyrrolidin-2-yl)methoxy)benzamide], the CC50 at 2 days in data set [1] (setting [3]) came out at 18.8 ± 1.49 µM. Moreover, the IC50 at SARS-CoV-2 PLpro (setting [4]) was less than 0.5 µM.
Regarding `Cc1ccc(N2CCN(C)[C@H](C)C2)cc1C(=O)N[C@H](C)c1cc(-c2ccn(C)n2)nc2ccccc12` [Example 99, 5-((R)-3,4-dimethylpiperazin-1-yl)-2-methyl-N—((R)-1-(2-(1-methyl-1H-pyrazol-3-yl)quinolin-4-yl)ethyl)benzamide], the CC50 at 2 days in data set [1] (setting [3]) was determined as 24.3 ± 2.62 µM. Moreover, the IC50 at SARS-CoV-2 PLpro (setting [4]) is less than 0.5 µM.
With `Cc1ccc(N2CC[C@@H](N(C)C)C2)cc1C(=O)N[C@H](C)c1cc(-c2ccn(C)n2)nc2ccccc12` [Example 100, 5-((R)-3-(dimethylamino)pyrrolidin-1-yl)-2-methyl-N—((R)-1-(2-(1-methyl-1H-pyrazol-3-yl)quinolin-4-yl)ethyl)benzamide], the CC50 at 2 days in data set [1] (setting [3]) was 30.6 ± 1.72 µM. Besides, the IC50 on SARS-CoV-2 PLpro (setting [4]) was less than 0.5 µM.
As for `Cc1ccc(N2CCN(C)C3(CC3)C2)cc1C(=O)N[C@H](C)c1cc(-c2ccn(C)n2)nc2ccccc12` [Example 101, (R)-2-methyl-N-(1-(2-(1-methyl-1H-pyrazol-3-yl)quinolin-4-yl)ethyl)-5-(4-methyl-4,7-diazaspiro[2.5]octan-7-yl)benzamide], in data set [1] (setting [3]), the CC50 at 2 days stood at 40.8 ± 4.27 µM. On SARS-CoV-2 PLpro (setting [4]), the IC50 fell in the range of 0.5 to 1 µM.
`Cc1ccc(N2CC3CCC(C2)N3C)cc1C(=O)N[C@H](C)c1cc(-c2ccn(C)n2)nc2ccccc12` [Example 102, 2-methyl-N—((R)-1-(2-(1-methyl-1H-pyrazol-3-yl)quinolin-4-yl)ethyl)-5-(8-methyl-3,8-diazabicyclo[3.2.1]octan-3-yl)benzamide] registered a CC50 at 2 days in data set [1] of 15.2 ± 1.09 µM. In addition, the concentration for half-maximal inhibition (IC50) on SARS-CoV-2 PLpro was less than 0.5 µM.
`Cc1ccc(N2C[C@H]3CN(C)C[C@H]3C2)cc1C(=O)N[C@H](C)c1cc(-c2ccn(C)n2)nc2ccccc12` [Example 103, 2-methyl-N—((R)-1-(2-(1-methyl-1H-pyrazol-3-yl)quinolin-4-yl)ethyl)-5-((3aR,6aS)-5-methylhexahydropyrrolo[3,4-c]pyrrol-2(1H)-yl)benzamide]: the CC50 at 2 days in data set [1] (setting [3]) amounted to 27.3 ± 1.74 µM. Besides, the IC50 at SARS-CoV-2 PLpro (setting [4]) is less than 0.5 µM.
`CCn1ccc(-c2cc([C@@H](C)NC(=O)c3cc(N4CCN(C)[C@H](C)C4)ccc3C)c3ccccc3n2)n1` [Example 104, 5-((R)-3,4-dimethylpiperazin-1-yl)-N—((R)-1-(2-(1-ethyl-1H-pyrazol-3-yl)quinolin-4-yl)ethyl)-2-methylbenzamide]: in data set [1] (setting [3]), the CC50 at 2 days is 30.5 ± 2.21 µM. Moreover, the IC50 on SARS-CoV-2 PLpro (setting [4]) is less than 0.5 µM.
For the molecule `CCn1ccc(-c2cc([C@@H](C)NC(=O)c3cc(N4CC5CCC(C4)N5C)ccc3C)c3ccccc3n2)n1` [Example 106, N—((R)-1-(2-(1-ethyl-1H-pyrazol-3-yl)quinolin-4-yl)ethyl)-2-methyl-5-(8-methyl-3,8-diazabicyclo[3.2.1]octan-3-yl)benzamide], the midpoint of cytotoxicity in data set [1], the CC50 at 2 days, lay at 31.3 ± 7.45 µM. Besides, the half-inhibitory concentration (IC50) on SARS-CoV-2 PLpro was less than 0.5 µM.
With `CCn1ccc(-c2cc([C@@H](C)NC(=O)c3cc(N4C[C@H]5C[C@@H]4CN5C)ccc3C)c3ccccc3n2)n1` [Example 107, N—((R)-1-(2-(1-ethyl-1H-pyrazol-3-yl)quinolin-4-yl)ethyl)-2-methyl-5-((1R,4R)-5-methyl-2,5-diazabicyclo[2.2.1]heptan-2-yl)benzamide], the CC50 at 2 days in data set [1] (setting [3]) came out at 22.3 ± 1.39 µM. The IC50 on SARS-CoV-2 PLpro (setting [4]) was less than 0.5 µM.
As for `CCn1ccc(-c2cc([C@@H](C)NC(=O)c3cc(N4CCN(C)CC4)ccc3C)c3ccccc3n2)n1` [Example 108, (R)—N-(1-(2-(1-ethyl-1H-pyrazol-3-yl)quinolin-4-yl)ethyl)-2-methyl-5-(4-methylpiperazin-1-yl)benzamide], the CC50 at 2 days in data set [1] (setting [3]) is 18.5 ± 1.4 µM. For the same molecule, the IC50 at SARS-CoV-2 PLpro (setting [4]) was less than 0.5 µM.
In the case of `CCn1ccc(-c2cc([C@@H](C)NC(=O)c3cc(OC[C@H]4CCCN4C)ccc3C)c3ccccc3n2)n1` [Example 110, N—((R)-1-(2-(1-ethyl-1H-pyrazol-3-yl)quinolin-4-yl)ethyl)-2-methyl-5-(((R)-1-methylpyrrolidin-2-yl)methoxy)benzamide], in data set [1] (setting [3]), the CC50 at 2 days is 46.3 ± 13.9 µM. Besides, the IC50 on SARS-CoV-2 PLpro (setting [4]) was less than 0.5 µM.
The molecule `Cc1ccc(N2CC3CCC(C2)N3C)cc1C(=O)NC1(c2cc(-c3cnn(C)c3)nc3ccccc23)CC1` [Example 112, 2-methyl-N-(1-(2-(1-methyl-1H-pyrazol-4-yl)quinolin-4-yl)cyclopropyl)-5-(8-methyl-3,8-diazabicyclo[3.2.1]octan-3-yl)benzamide] came in with a CC50 at 2 days in data set [1] of 53.8 ± 2.52 µM. The IC50 against SARS-CoV-2 PLpro is less than 0.5 µM.
In the case of `Cc1ccc(OC[C@@H]2C[C@@H](F)CN2C)cc1C(=O)NC1(c2cc(-c3cnn(C)c3)nc3ccccc23)CC1` [Example 114, 5-(((2S,4R)-4-fluoro-1-methylpyrrolidin-2-yl)methoxy)-2-methyl-N-(1-(2-(1-methyl-1H-pyrazol-4-yl)quinolin-4-yl)cyclopropyl)benzamide], the CC50 at 2 days in data set [1] (setting [3]) was determined as 51.3 ± 6.52 µM. For the same molecule, the IC50 on SARS-CoV-2 PLpro (setting [4]) was less than 0.5 µM.
As for `Cc1ccc(OC[C@@H]2CCN2C)cc1C(=O)NC1(c2cc(-c3cnn(C)c3)nc3ccccc23)CC1` [Example 115, (S)-2-methyl-N-(1-(2-(1-methyl-1H-pyrazol-4-yl)quinolin-4-yl)cyclopropyl)-5-((1-methylazetidin-2-yl)methoxy)benzamide], in data set [1] (setting [3]), the CC50 at 2 days was 127 ± 7.89 µM. Also, the IC50 on SARS-CoV-2 PLpro (setting [4]) was less than 0.5 µM.
For the molecule `Cc1ccc(N)cc1C(=O)N[C@H](C)c1cccc2ccccc12` [GRL0617], in data set [2], the concentration giving a half-maximal response (EC50) was roughly 20 µM.

For orientation: CC50 means the concentration at which the toxic effect on the cells reaches its halfway point. By IC50 is commonly meant the concentration at which inhibition is half-maximal. Broadly, the EC50 is the concentration giving half of the maximal effect.
